Measured values published in patent US11685761B2, “Cyclic di-nucleotide compounds as sting agonists” (Merck Sharp & Dohme Corp., priority 2017, dated 2023).

Tests used:
[1] = molecular target: T1, full-length HAQ STING (Homo sapiens, UniProt Q86WV6, G230A/H232R/R293Q/R71H); test: 3H-cGAMP filtration binding assay (HAQ STING); details: competition with tritiated cGAMP ligand; T. ni cell membranes overexpressing full-length HAQ STING
T1 construct: made in house; host or cells: Trichoplusia ni (Hi-Five) insect cells, baculovirus generated in Sf21; crude membranes

[2] = molecular target: T2, full-length WT STING (Homo sapiens, UniProt Q86WV6, H232R); test: 3H-cGAMP filtration binding assay (WT STING); details: competition with tritiated cGAMP ligand; T. ni cell membranes overexpressing full-length WT STING
T2 construct: made in house; host or cells: Trichoplusia ni insect cells, baculovirus generated in Sf21; crude membranes
Procedure: The ability of compounds to bind STING is quantified by their ability to compete with tritiated cGAMP ligand for human STING receptor membrane using a radioactive filter-binding assay. The binding assay employs STING receptor obtained from Trichoplusia ni cell membranes (T. ni; Expression Systems, cat #94-002F, www.expressionsystems.com) overexpressing full-length WT STING and tritiated cGAMP ligand.
The basic WT STING filtration assay protocol is as follows:
16 nM of [^3H] c-GAMP ligand was prepared by diluting into assay buffer, and 50 uL of this working stock was manually added to each well of the assay plate. After ligand addition, 2 uL of either titrated test compound, DMSO control (Sigma #276855), or cold cGAMP control was added to the appropriate wells using a BIOMEK FX. The serially titrated compound was prepared on a Hamilton STARPlus CORE in a 96-well plate (Greiner, #651201) using a 1:3 ten-point dose response format. Following compound addition, a 2.2 ug/ml working concentration of STING membrane (SEQ. ID. No. 3) was prepared by diluting concentrated membrane into assay buffer (1×PBS; Invitrogen #SH30028.02) and douncing 7× using a manual tissue homogenizer (Wheaton, #357546). 148 uL of this prepared membrane was then manually added to each well of a 96-well deep-well polypropylene plate (Fisher Scientific, #12-566-121). Compound, ligand, and membrane then incubated for 60 min at RT before the contents of each assay plate were filtered through a 96-well GF/B filter plate (PerkinElmer, #6005250) using a TOMTEC MACH III Cell Harvester equipped with 20 mM HEPES buffer (Fisher Scientific, #BP299500). The filter plates were then dried at 55° C. for 30 min using a pressurized VWR oven before 30 uL of ULTIMA GOLD F scintillate was added to each well. Tritium levels for each reaction well were then measured using a PerkinElmer TopCount plate reader.
After normalization to controls, the percent activity for each compound concentration was calculated by measuring the amount of remaining radioactivity. The plot of percent activity versus the log of compound concentration was fit with a 4-parameter dose response equation to calculate EC50 values.

[3] = system: IFN-β secretion from THP1 cells; test: IFN-β secretion in THP1 cell culture (5 h); type: cell-based, human; details: THP1 cells, 5 h incubation, compound at 30 μM, 30 uM cGAMP = 100%; for activation at 30 µM: Homo sapiens, THP-1, 5 h, read-out: % Effect at 30 μM relative to 2′3′-cGAMP
Method in brief: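 THP1 cells at 0.8×10^6/mL were incubated with compounds for 5 h at 37 °C, and secreted IFN-β in the supernatant was measured by AlphaLISA. Percent effect was normalised to 30 uM cGAMP (positive) and 0.3% DMSO (negative) controls. EC50 came from a 4-parameter fit.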

T1 sequence (Q86WV6 with tags, fused parts or gaps R71H/G230A/H232R/R293Q): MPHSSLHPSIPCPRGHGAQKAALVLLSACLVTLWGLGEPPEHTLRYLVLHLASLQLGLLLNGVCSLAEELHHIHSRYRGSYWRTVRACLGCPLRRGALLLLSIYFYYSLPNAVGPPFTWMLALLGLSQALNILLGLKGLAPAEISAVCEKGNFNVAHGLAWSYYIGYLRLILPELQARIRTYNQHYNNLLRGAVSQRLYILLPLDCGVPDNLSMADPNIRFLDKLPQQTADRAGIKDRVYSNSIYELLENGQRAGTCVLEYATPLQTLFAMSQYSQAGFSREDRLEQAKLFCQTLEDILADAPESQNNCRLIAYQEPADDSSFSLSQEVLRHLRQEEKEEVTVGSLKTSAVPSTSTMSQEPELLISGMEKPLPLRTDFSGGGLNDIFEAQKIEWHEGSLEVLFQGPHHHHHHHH
T2 sequence (Q86WV6 with tags, fused parts or gaps H232R): as the sequence (Q86WV6 with tags, fused parts or gaps R71H/G230A/H232R/R293Q) above, with H71R, A230G, Q293R counted along it

EC50 [1] [nM] | EC50 [2] [nM] | SMILES | activation at 30 µM [3] [%] | % Effect at 30 μM relative to 2′3′-cGAMP [3] [%]
140 | 1860 | Nc1ncnc2c1ncn2[C@@H]1O[C@@H]2CO[P@@](=O)(S)O[C@@H]3[C@H](O)[C@@H](CO[P@](=O)(S)O[C@H]2[C@@H]1F)O[C@H]3n1ccc(=O)n2ccnc12 [Example 3, 8-[(2S,5R,7R,8R,10R,12aR,14R,15S,15aR, 16R)-14-(6-amino-9H-purin-9-yl)-15-fluoro-16-hydroxy-2,10-dioxido-2,10-disulfanyloctahydro-12H-5,8-methanofuro[3,2-l][1,3,6,9,11,2,10]pentaoxadiphosphacyclotetradecin-7-yl]imidazo [1,2-a]pyrimidin-5(8H)-one] | 20 | 
59 | 1760 | Nc1ncnc2c1nnn2[C@@H]1O[C@@H]2COP(=O)(S)O[C@@H]3[C@H](O)[C@@H](COP(=O)(S)O[C@H]2[C@@H]1F)O[C@H]3n1ccc(=O)n2ccnc12 (stereo partly drawn) [Example 4] | 139 | 
563 | 10300 | Nc1ncnc2c1ccn2[C@H]1C[C@@H]2O[P@@](=O)(S)OC[C@H]3O[C@@H](n4ccc(=O)n5ccnc45)[C@H](O[P@](=O)(S)OC[C@H]2O1)[C@@H]3O [Example 5, 8-[(2S,5R,7R,8R,10R,12aR,14R,15aS,16R)-14-(4-amino-7H-pyrrolo[2,3-d]pyrimidin-7-yl)-16-hydroxy-2,10-dioxido-2,10-disulfanyloctahydro-12H-5,8-methanofuro[3,2-l][1,3,6,9,11,2,10]pentaoxadiphosphacyclotetradecin-7-yl]imidazo [1,2-a]pyrimidin-5(8H)-one] | 39 | 
238 | 1960 | Nc1ncnc2c1ncn2[C@@H]1O[C@@H]2CO[P@@](=O)(S)O[C@@H]3[C@H](O)[C@@H](CO[P@@](=O)(S)O[C@H]2[C@@H]1F)O[C@H]3n1ccc(=O)c2nccn21 [Example 13, 5-[(2R,5R,7R,8R,10R,12aR,14R,15S,15aR, 16R)-14-(6-amino-9H-purin-9-yl)-15-fluoro-16-hydroxy-2,10-dioxido-2,10-disulfanyloctahydro-12H-5,8-methanofuro[3,2-l][1,3,6,9,11,2,10]pentaoxadiphosphacyclotetradecin-7-yl]imidazo [1,2-b]pyridazin-8(5H)-one] | 334 | 
208 | 902 | Nc1ncnc2c1ncn2[C@@H]1O[C@@H]2CO[P@@](=O)(S)O[C@@H]3C[C@@H](CO[P@@](=O)(S)O[C@H]2[C@@H]1F)O[C@H]3n1ccc(=O)n2ccnc12 [Example 19, 8-[(2R,5S,7R,8R,10R,12aR,14R,15S,15aR)-14-(6-amino-9H-purin-9-yl)-15-fluoro-2,10-dioxido-2,10-disulfanyloctahydro-12H-5,8-methanofuro[3,2-l][11,3,6,9,11,2,10]pentaoxadiphosphacyclotetradecin-7-yl]imidazo[1,2-a]pyrimidin-5(8H)-one] |  | 7
45 | 136 | O=c1[nH]cnc2c1ncn2[C@@H]1O[C@@H]2CO[P@@](=O)(S)O[C@@H]3C[C@@H](CO[P@@](=O)(S)O[C@H]2[C@@H]1F)O[C@H]3n1ccc(=O)n2ccnc12 [Example 29, 9-[(2R,5S,7R,8R,10R,12aR,14R,15S,15aR)-15-fluoro-2,10-dioxido-7-(5-oxoimidazo[1,2-a]pyrimidin-8(5H)-yl)-2,10-disulfanyloctahydro-12H-5,8-methanofuro[3,2-l][1,3,6,9,11,2,10]pentaoxadiphosphacyclotetradecin-14-yl]-1,9-dihydro-6H-purin-6-one] | 150 | 
2 | 124 | Nc1nc2c(ncn2[C@@H]2O[C@@H]3CO[P@](=O)(S)O[C@H]4[C@H](F)[C@H](n5ccc6c(=O)[nH]cnc65)O[C@@H]4CO[P@@](=O)(S)O[C@@H]2C3)c(=O)[nH]1 [Example 41, 2-amino-9-[(2R,5S,7R,8R,10R,12aR,14R,15S,15aR)-15-fluoro-2,10-dioxido-14-(4-oxo-3,4-dihydro-7H-pyrrolo[2,3-d]pyrimidin-7-yl)-2,10-disulfanyl-octahydro-12H-5,8-methanofuro[3,2-l] [1,3,6,9,11,2,10]pentaoxadiphosphacyclotetradecin-7-yl]-l,9-dihydro-6H-purin-6-one] | 156 | 
3 | 85 | Nc1nc2c(nnn2[C@@H]2O[C@@H]3COP(=O)(S)O[C@H]4[C@H](F)[C@H](n5ccc6c(=O)[nH]cnc65)O[C@@H]4COP(=O)(S)O[C@@H]2C3)c(=O)[nH]1 (stereo partly drawn) [Example 45, 5-amino-3-[(5S,7R,8R,12aR,14R,15S, 15aR)-15-fluoro-2,10-dioxido-14-(4-oxo-3,4-dihydro-7H-pyrrolo[2,3-d]pyrimidin-7-yl)-2,10-disulfanyl-octahydro-12H-5,8-methanofuro[3,2-l][1,3,6,9,11,2,10]pentaoxadiphosphacyclotetradecin-7-yl]-3,6-dihydro-7H-[1,2,3]triazolo[4,5-d]pyrimidin-7-one] | 135 | 
2 | 205 | Nc1nc2c(nnn2[C@@H]2O[C@@H]3COP(=O)(S)O[C@H]4[C@H](F)[C@H](n5ccc6c(=O)[nH]cnc65)O[C@@H]4COP(=O)(S)O[C@@H]2[C@H]3F)c(=O)[nH]1 (stereo partly drawn) [Example 48, 5-amino-3-[(5R,7R,8S,12aR,14R,15S,15aR,16S)-15,16-difluoro-2,10-dioxido-14-(4-oxo-3,4-dihydro-7H-pyrrolo[2,3-d]pyrimidin-7-yl)-2,10-disulfanyl-octahydro-12H-5,8-methanofuro[3,2-l] [1,3,6,9,11,2,10]pentaoxadiphosphacyclotetradecin-7-yl]-3,6-dihydro-7H-[1,2,3]triazolo[4,5-d]pyrimidin-7-one] | 159 | 
